Assay results from paper PMC7281072 (Cancers, 2020).

Legend:
[1] = test system: SKOV-3 human ovarian adenocarcinoma xenograft; parameters: species or system CB17 SCID mice; conditions: mouse, in vivo; on MST (mean survival time): test concentration or dose not given here; on TI% (Tumor Inhibition): test concentration or dose not given here
[2] = test system: OVCAR-5 human ovarian adenocarcinoma xenograft; parameters: species or system CB17 SCID mice; conditions: mouse, in vivo; on MST (mean survival time): test concentration or dose not given here; on TI% (Tumor Inhibition): test concentration or dose not given here
CB17 SCID mice = conditions: both, mouse, in vivo, ip
in vivo = conditions: both, CB17 SCID, mouse, ip

NC(Cc1ccc(N(CCCl)CCCl)cc1)C(=O)O [L-PAM, 2-amino-3-(4-(bis (2-chloroethyl)amino)phenyl) propanoic acid, reference compound]
Median Overall Survival (OS) [1]: 49 days | Progression Free Survival (PFS) [1]: 0 days | Response Rate (RR) [1]: 0% | antitumor activity (in words) [1]: no significant antitumor activity | Cures (mice alive for 120 days after tumor inoculation) ([1]; ip): 0/5 | MST (mean survival time) ([1]; ip): 48.5 ± 2.3 days | T/C% (mean survival time of treated versus saline controls) ([1]; ip): 119.7% | TI% (Tumor Inhibition) ([1]; ip): 10.5% | Median Overall Survival (OS) [2]: 60 days | Progression Free Survival (PFS) [2]: 0 days | Response Rate (RR) [2]: 0% | antitumor activity (in words) [2]: no significant antitumor activity | Cures (mice alive for 120 days after tumor inoculation) ([2]; ip): 0/5 | MST (mean survival time) ([2]; ip): 61.0 ± 4.3 days | T/C% (mean survival time of treated versus saline controls) ([2]; ip): 120.8% | TI% (Tumor Inhibition) ([2]; ip): 24.5% | LD10 (CB17 SCID mice): 14 mg/kg | LD50 (in vivo): 20.8 mg/kg
